Test results reported in US9012641B2, “Crystalline forms of Prasugrel salts” (Teva Pharmaceuticals Industries Ltd., priority 2010, dated 2015).
Structures can show the parent of a compound that is named as a salt.

Experiment: Storage of the sample in an open Petri dish at room conditions, reanalysed on HPLC
Format: physicochemical
Details: room conditions (20-25° C., relative humidity 20-30%), 1 month, HPLC purity before storage 99.94%
Protocol: The sample was left in an open Petri dish at room conditions (20-25° C., relative humidity 20-30%) for 1 month and then reanalyzed on HPLC giving purity of 99.84%.

HPLC purity after storage: 99.84%
SMILES: CC(=O)Oc1cc2c(s1)CCN(C(C(=O)C1CC1)c1ccccc1F)C2 (stereo not shown) [form II of prasugrel hydrobromide, Prasugrel hydrobromide]
